pIC50: −log10 of the molar value.
molecular target: T1, Receptor-type tyrosine-protein phosphatase C (Homo sapiens, UniProt P08575); experiment: Tested for inhibitory activity against CD45 protein-tyrosine phosphatase of Jurkat cell membrane at 1000 uM; assay type: cell-based
T1 sequence (P08575 whole entry): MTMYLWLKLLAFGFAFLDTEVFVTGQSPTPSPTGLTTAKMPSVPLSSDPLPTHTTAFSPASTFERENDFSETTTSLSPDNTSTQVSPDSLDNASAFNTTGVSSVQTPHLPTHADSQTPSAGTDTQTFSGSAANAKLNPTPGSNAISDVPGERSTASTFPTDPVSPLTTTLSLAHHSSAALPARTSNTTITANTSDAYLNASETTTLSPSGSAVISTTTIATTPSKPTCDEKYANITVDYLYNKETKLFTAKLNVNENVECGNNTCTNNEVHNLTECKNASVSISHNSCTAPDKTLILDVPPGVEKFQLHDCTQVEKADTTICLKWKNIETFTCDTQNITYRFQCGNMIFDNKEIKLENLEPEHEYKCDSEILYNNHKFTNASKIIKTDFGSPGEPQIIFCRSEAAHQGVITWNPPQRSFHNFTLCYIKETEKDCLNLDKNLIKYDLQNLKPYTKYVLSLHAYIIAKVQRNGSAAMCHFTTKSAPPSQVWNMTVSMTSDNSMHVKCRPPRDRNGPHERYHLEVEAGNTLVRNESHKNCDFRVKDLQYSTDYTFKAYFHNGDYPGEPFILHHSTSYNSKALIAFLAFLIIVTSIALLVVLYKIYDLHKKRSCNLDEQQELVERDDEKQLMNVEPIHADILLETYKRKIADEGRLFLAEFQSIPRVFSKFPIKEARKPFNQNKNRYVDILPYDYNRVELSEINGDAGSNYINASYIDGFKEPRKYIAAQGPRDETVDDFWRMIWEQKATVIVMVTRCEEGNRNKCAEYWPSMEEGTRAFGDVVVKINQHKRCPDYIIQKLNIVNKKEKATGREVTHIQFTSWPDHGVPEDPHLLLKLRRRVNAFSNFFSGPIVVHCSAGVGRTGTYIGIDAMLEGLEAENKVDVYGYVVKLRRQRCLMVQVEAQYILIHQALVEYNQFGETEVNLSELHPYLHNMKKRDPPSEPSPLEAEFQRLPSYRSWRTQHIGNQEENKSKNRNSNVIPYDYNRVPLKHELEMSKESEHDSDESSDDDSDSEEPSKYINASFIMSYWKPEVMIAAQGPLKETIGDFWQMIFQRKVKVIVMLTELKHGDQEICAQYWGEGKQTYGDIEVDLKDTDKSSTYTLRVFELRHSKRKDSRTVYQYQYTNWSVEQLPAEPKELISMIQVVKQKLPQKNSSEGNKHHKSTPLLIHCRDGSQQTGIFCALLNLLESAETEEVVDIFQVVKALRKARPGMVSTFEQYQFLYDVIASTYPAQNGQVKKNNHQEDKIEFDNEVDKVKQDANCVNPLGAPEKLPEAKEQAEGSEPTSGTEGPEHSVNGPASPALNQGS

Compared with `CC(O)(c1cccc([N+](=O)[O-])c1)P(=O)(O)O` (stereo unspecified), `O=[N+]([O-])c1cccc(C(O)P(=O)(O)O)c1` (stereo unspecified) is 0.76 log units higher in pIC50: 4.24 for the first, 5.00 for the second.

With `O=[N+]([O-])c1ccc(C(O)P(=O)(O)O)cc1` (stereo unspecified) the pIC50 was 4.55.

molecular target: T2, Receptor-type tyrosine-protein phosphatase C (Homo sapiens) (UniProt P08575); experiment: Compound was tested for its inhibitory activity against CD45 protein-tyrosine phosphatase of Jurkat cell membrane at 1000 uM concentration; assay type: cell-based
T2 sequence (whole entry): T1 sequence (P08575 whole entry)

Compared with `N#Cc1cccc(C(O)P(=O)(O)O)c1` (stereo unspecified), `O=[N+]([O-])c1cccc(C(O)P(=O)(O)O)c1` (stereo unspecified) is higher in inhibition: 49% for the first, 93% for the second.

Going from `CC(O)(c1cccc([N+](=O)[O-])c1)P(=O)(O)O` (stereo unspecified) to `O=[N+]([O-])c1ccc(C(O)P(=O)(O)O)cc1` (stereo unspecified), the inhibition rises from 97% to 98%.

Compared with `O=[N+]([O-])c1cc(C(O)P(=O)(O)O)ccc1O` (stereo unspecified), `O=P(O)(O)C(O)c1ccccc1` (stereo unspecified) is higher in inhibition: 8% for the first, 39% for the second.

`O=P(O)(O)C(O)c1cccc2ccccc12` (stereo unspecified) showed an inhibition of 53%.

molecular target: T2, Receptor-type tyrosine-protein phosphatase C (Homo sapiens); experiment: Compound was tested for its inhibitory activity against CD45 protein-tyrosine phosphatase of Jurkat cell membrane at 250 uM concentration; assay type: cell-based

`O=P(O)(O)C(NCc1ccccc1)c1cccc2ccccc12` (stereo unspecified) showed an inhibition of 23%.

molecular target: T2, Receptor-type tyrosine-protein phosphatase C (Homo sapiens); experiment: Inhibition of CD45 protein-tyrosine phosphatase of Jurkat cell membrane at 500 uM.; assay type: cell-based

First: Nc1cccc(C(O)P(=O)(O)O)c1 (stereo unspecified)
Second: Cc1cccc(C(O)P(=O)(O)O)c1 (stereo unspecified)
The inhibition of the first is lower: 23% for the first, 27% for the second.

First: O=[N+]([O-])c1ccc(SC2CCCCC2)c(C(O)P(=O)(O)O)c1 (stereo unspecified)
Second: O=[N+]([O-])c1ccc(Cl)c(C(O)P(=O)(O)O)c1 (stereo unspecified)
The inhibition of the first is higher: 99% for the first, 81% for the second.

Going from `O=[N+]([O-])c1cc(C(O)P(=O)(O)O)cs1` (stereo unspecified) to `O=[N+]([O-])c1ccc(O)c(C(O)P(=O)(O)O)c1` (stereo unspecified), the inhibition falls from 93% to 75%.

Compared with `O=P(O)(O)C(O)c1ccccn1` (stereo unspecified), `O=P(O)(O)C(O)c1cccnc1` (stereo unspecified) is higher in inhibition: 2% for the first, 13% for the second.

`O=C(c1ccccc1)C(C(=O)c1ccccc1)(c1cccc2ccccc12)P(=O)(O)O` and `Cc1cccc(C(c2ccccc2)P(=O)(O)O)c1` (stereo unspecified) are the same in inhibition: 8% for the first, 8% for the second.

Compared with `CS(=O)(=O)c1ccc(C(O)P(=O)(O)O)cc1` (stereo unspecified), `COc1ccc(C(O)P(=O)(O)O)cc1` (stereo unspecified) is higher in inhibition: 41% for the first, 42% for the second.

First: O=P(O)(O)C(O)c1cccc(O)c1 (stereo unspecified)
Second: O=P(O)(O)C(O)c1cccc(Cl)c1 (stereo unspecified)
The inhibition of the first is lower: 0% for the first, 49% for the second.

First: O=P(O)(O)C(O)c1ccc2ccccc2c1 (stereo unspecified)
Second: O=P(O)(O)C(O)c1ccnc2ccccc12 (stereo unspecified)
The inhibition of the first is higher: 59% for the first, 58% for the second.

First: O=[N+]([O-])c1cccc(CP(=O)(O)O)c1
Second: O=P(O)(O)C(O)c1ccncc1 (stereo unspecified)
The inhibition of the first is higher: 17% for the first, 0% for the second.

molecular target: not listed separately; experiment: Compound was tested for its inhibitory activity against Osteoclastic acid phosphatase; parameters: species or system Homo sapiens

With `O=C(c1ccccc1)C(C(=O)c1ccccc1)(c1cccc2ccccc12)P(=O)(O)O` the pIC50 was 5.85.

molecular target: T3, Prostatic acid phosphatase (Homo sapiens, UniProt P15309); experiment: Compound was tested for its inhibitory activity against human prostatic acid phosphatase
T3 sequence (P15309 whole entry): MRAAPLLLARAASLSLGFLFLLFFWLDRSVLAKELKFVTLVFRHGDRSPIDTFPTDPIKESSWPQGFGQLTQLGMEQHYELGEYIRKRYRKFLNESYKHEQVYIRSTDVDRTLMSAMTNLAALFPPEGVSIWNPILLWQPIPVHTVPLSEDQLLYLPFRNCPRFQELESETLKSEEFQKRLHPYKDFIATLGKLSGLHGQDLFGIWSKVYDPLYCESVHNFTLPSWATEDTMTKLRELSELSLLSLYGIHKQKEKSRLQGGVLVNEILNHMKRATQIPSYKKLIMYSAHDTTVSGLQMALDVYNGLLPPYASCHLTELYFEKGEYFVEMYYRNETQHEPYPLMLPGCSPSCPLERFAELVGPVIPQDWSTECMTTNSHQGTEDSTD

For `O=P(O)(O)C(NCc1ccccc1)c1cccc2ccccc12` (stereo unspecified), the pIC50 was 8.07.

From ChEMBL document CHEMBL1130370, “Novel hydroxyphosphonate inhibitors of CD-45 tyrosine phosphatase” (Bioorg Med Chem Lett, 1997)
